# Data taken from US6313095A, “Antiherpes tetrapeptide derivatives having a substituted aspartic acid side chain” (Boehringer Ingelheim (Canada), Ltd., priority 1989, dated 2001).
# Where a SMILES comes first, the peptide text is derived from it. [ ]: non-standard residue; d: D form. The star is where a group is joined. ξ: configuration not given here. Asp(3,3-(CH2)4) = N[C@H](C(=O)O)C1(C(=O)O)CCCC1; Gly(1-COOH-cBu) = N[C@H](C(=O)O)C1(C(=O)O)CCC1; cPrCO(2,2,3,3-Me4) = CC1(C)C(C(=O)*)C1(C)C; X1 = CC1CCC(C)C(C(=O)*)C1C(=O)OCCc1ccccc1; Benzoyl(2-Ph) = O=C(c1ccccc1-c1ccccc1)*; ξAsp(3,3-Me2) = CC(C)(C(=O)O)C(N)C(=O)O; X3 = O=C(CCc1ccccc1)C1CCCCC1C(=O)*; Pentanoyl(4-Me) = CC(C)CCC(=O)*; X5 = CC(C)C(CCCCc1ccccc1)C(=O)*; Butanoyl(2-Et) = CCC(CC)C(=O)*; O(2S-octyl) = CCCCCC[C@H](C)O*; Tle = CC(C)(C)[C@H](N)C(=O)O; Leu(ol) = CC(C)C[C@H](N)CO; Hiv = CC(C)[C@H](O)C(=O)O; Isovaleryl = CC(C)CC(=O)*; Morpholide = C1CN(*)CCO1; Pyrrolidide = C1CCN(*)C1; X4 = CC1CCCC(C)C1C(=O)*; X6 = CCCCCCCCN(C)*; Bn = c1ccc(C*)cc1; NEt2 = CCN(CC)*
# Target: T1, HSV-1 ribonucleotide reductase (Human herpesvirus 1, UniProt P08543)
# T1 construct: HSV-1 ribonucleotide reductase (partially purified) was obtained from quiescent BHK-21/C13 cells infected with strain F HSV-1 virus; endogenous in cells; host or cells: quiescent BHK-21/C13 (hamster) cells infected with HSV-1 strain F; partially purified enzyme preparation
# Test: Inhibition of Herpes Simplex Virus (HSV, Type 1) Ribonucleotide Reductase
# Format: biochemical, herpes simplex virus type 1 (strain F)
# Conditions: mean of four assays
# Text: Inhibition of Herpes Simplex Virus (HSV, Type 1) Ribonucleotide Reductase
# HSV-1 ribonucleotide reductase (partially purified) was obtained from quiescent BHK-21/C13 cells infected with strain F HSV-1 virus at 10 plaque forming units/cell as described by E. A. Cohen et al., J. Gen. Virol., 66, 733 (1985).
# b) Assay and Results for Exemplified Peptides
# By following the procedure described by P. Gaudreau et al., J. Biol, Chem., 262, 12413 (1987), the assay results listed in the following table were obtained. The assay result for each peptide is expressed as the concentration of the peptide producing 50% of the maximal inhibition (IC50) of enzyme activity. The number of units of the enzyme preparation used in each assay was constant, based on the specific activity of the enzyme preparation. The results are relative to the activity obtained in control experiments without peptide and represent the mean of four assays that varied less than 10% with each other.
# [1] = concentration producing 50% of the maximal inhibition of enzyme activity, partially purified enzyme
# [2] = separated diastereoisomer, first eluted on HPLC (footnotes 1, 3)
# [3] = separated diastereoisomer, second eluted on HPLC (footnotes 1, 3)
# T1 sequence (P08543 whole entry): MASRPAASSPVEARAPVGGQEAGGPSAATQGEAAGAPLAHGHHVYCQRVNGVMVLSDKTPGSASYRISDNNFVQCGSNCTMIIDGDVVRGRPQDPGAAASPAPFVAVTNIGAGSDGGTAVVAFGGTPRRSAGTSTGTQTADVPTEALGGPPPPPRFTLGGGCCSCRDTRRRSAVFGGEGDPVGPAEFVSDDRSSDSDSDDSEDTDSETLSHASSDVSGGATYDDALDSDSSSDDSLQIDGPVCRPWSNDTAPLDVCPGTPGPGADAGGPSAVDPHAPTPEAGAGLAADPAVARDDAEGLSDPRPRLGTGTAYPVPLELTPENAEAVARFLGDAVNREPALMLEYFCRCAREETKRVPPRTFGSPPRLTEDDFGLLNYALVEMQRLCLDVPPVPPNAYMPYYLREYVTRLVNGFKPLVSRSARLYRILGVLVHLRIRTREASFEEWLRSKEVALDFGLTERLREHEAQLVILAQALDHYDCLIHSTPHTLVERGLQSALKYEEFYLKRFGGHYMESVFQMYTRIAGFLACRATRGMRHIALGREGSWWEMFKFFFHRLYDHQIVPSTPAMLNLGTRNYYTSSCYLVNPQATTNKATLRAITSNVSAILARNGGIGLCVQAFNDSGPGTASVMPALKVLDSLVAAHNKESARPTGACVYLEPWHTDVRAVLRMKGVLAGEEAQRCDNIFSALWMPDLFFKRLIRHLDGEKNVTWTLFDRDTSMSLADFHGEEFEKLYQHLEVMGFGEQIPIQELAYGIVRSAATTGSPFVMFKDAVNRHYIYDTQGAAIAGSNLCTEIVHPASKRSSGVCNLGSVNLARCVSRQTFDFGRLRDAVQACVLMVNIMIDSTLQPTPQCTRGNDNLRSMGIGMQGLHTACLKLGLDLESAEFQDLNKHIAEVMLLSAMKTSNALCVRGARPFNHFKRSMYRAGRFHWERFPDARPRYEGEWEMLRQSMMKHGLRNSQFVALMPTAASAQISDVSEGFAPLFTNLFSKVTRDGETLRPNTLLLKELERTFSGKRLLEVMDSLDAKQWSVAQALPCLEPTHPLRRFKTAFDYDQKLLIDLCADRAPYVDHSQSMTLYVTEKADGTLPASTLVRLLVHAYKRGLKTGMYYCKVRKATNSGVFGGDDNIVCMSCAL
Compound,IC50 [1],further results
CC[C@H](C)[C@H](NC(=O)c1ccccc1-c1ccccc1)C(=O)N[C@@H](CC(=O)N1CCCC1)C(=O)N[C@@H](CC(=O)O)C(=O)N[C@@H](CC(C)C)c1nnn[nH]1 [2-Biphenylcarbonyl-Ile-Asp(pyrrolidino)-Asp-NHCH--[CH2 CH(CH3)2-5-1H-tetrazole],13800 nM,–
CC[C@H](C)[C@H](NC(=O)c1ccccc1-c1ccccc1)C(=O)N[C@@H](CC(=O)N1CCOCC1)C(=O)N[C@@H](CC(=O)O)C(=O)N[C@@H](CC(C)C)C(=O)O [2-Biphenylylcarbonyl-Ile-Asp(morpholino)-Asp-Leu-OH] ({Benzoyl(2-Ph)}-ID(Morpholide)DL-OH),7200 nM,–
CC[C@H](C)[C@H](NC(=O)c1ccccc1-c1ccccc1)C(=O)N[C@@H](CC(=O)N1CCCC1)C(=O)N[C@@H](CC(=O)O)C(=O)N[C@@H](CC(C)C)C(=O)O [2-Biphenylylcarbonyl-Ile-Asp(pyrrolidino)-Asp-Leu-OH] ({Benzoyl(2-Ph)}-ID(Pyrrolidide)DL-OH),3600 nM,–
"CC[C@H](C)[C@H](NC(=O)C1C(C)(C)C1(C)C)C(=O)N[C@@H](CC(=O)N1CCCC1)C(=O)N[C@@H](CC(=O)O)C(=O)N[C@@H](CC(C)C)C(=O)O [(2,2,3,3-Tetramethylcyclopropyl)carbonyl-Ile-Asp(pyrrolidino)-Asp-Leu-OH] ({cPrCO(2,2,3,3-Me4)}-ID(Pyrrolidide)DL-OH)",1400 nM,–
"CC[C@H](C)[C@H](NC(=O)C1C(C)CCCC1C)C(=O)N[C@@H](CC(=O)N1CCCC1)C(=O)N[C@@H](CC(=O)O)C(=O)N[C@@H](CC(C)C)C(=O)O (stereo partly drawn) [(2,6-Dimethylcyclohexyl)carbonyl-Ile-Asp(pyrrolidino)-Asp-Leu-OH] (X4-ID(Pyrrolidide)DL-OH)",2100 nM,–
"CCC(CC)C(=O)N[C@H](C(=O)N[C@@H](CC(=O)N1CCCC1)C(=O)N[C@H](C(=O)N[C@H](CO)CC(C)C)C1(C(=O)O)CCCC1)C(C)(C)C [(C2 H3)2 CHCO-Tbg-Asp(pyrrolidino)-Asp(cyPn)-(L-leucinol)] ({Butanoyl(2-Et)}-[Tle]D(Pyrrolidide)[Asp(3,3-(CH2)4)][Leu(ol)])",500 nM,–
CCC(CC)C(=O)N[C@H](C(=O)N[C@@H](CC(=O)N1CCCC1)C(=O)N[C@@H](CC(=O)O)C(=O)NCCC(C)(C)C)C1CCCC1 [(C2 H5)2 CHCO-Cpg-Asp(pyrrolidino)-Asp-NHCH2 CH2 C(CH)3],35000 nM,–
CCC(CC)C(=O)N[C@@H](Cc1cccs1)C(=O)N[C@@H](CC(=O)N1CCCC1)C(=O)N[C@@H](CC(=O)O)C(=O)NCCC(C)(C)C [(C2 H5)2 CHCO-NHCH(2-thienylmethyl)CO-Asp(pyrrolidino)-Asp-NHCH2 CH2 C(CH3)3],60000 nM,–
CCC(CC)C(=O)N[C@H](C(=O)N[C@@H](CC(=O)N1CCCC1)C(=O)N[C@@H](CC(=O)O)C(=O)NCCC(C)(C)C)c1ccccc1 [(C2 H5)2 CHCO-Phg-Asp(pyrrolidino)-Asp-NHCH2 CH2 C(CH3)3],40000 nM,–
CCCCCC[C@H](C)OC(=O)C[C@H](NC(=O)[C@@H](NC(=O)C(CC)CC)C(C)(C)C)C(=O)N[C@H](C(=O)N[C@@H](CC(C)C)C(=O)O)C1(C(=O)O)CCC1 [(C2 H5)2 CHCO-Tbg-Asp(1-methylheptyloxy)-Asp(cyBu)-Leu-OH] ({Butanoyl(2-Et)}-[Tle]D(O(2S-octyl))[Gly(1-COOH-cBu)]L-OH),500 nM,–
"CCCCCC[C@H](C)OC(=O)C[C@H](NC(=O)[C@@H](NC(=O)C(CC)CC)C(C)(C)C)C(=O)N[C@H](C(=O)N[C@@H](CC(C)C)C(=O)O)C1(C(=O)O)CCCC1 [(C2 H5)2 CHCO-Tbg-Asp(1-methylheptyloxy)-Asp(cyPn)-Leu-OH] ({Butanoyl(2-Et)}-[Tle]D(O(2S-octyl))[Asp(3,3-(CH2)4)]L-OH)",370 nM,–
CCCCCCCCN(C)C(=O)C[C@H](NC(=O)[C@@H](NC(=O)C(CC)CC)C(C)(C)C)C(=O)N[C@H](C(=O)N[C@@H](CC(C)C)C(=O)O)C1(C(=O)O)CCC1 [(C2 H5)2 CHCO-Tbg-Asp(N-Me-N-octyl)-Asp(cyBu)-Leu-OH] ({Butanoyl(2-Et)}-[Tle]D(X6)[Gly(1-COOH-cBu)]L-OH),200 nM,–
CCCCC(C(=O)O)[C@H](NC(=O)[C@H](CC(=O)N1CCCC1)NC(=O)[C@@H](NC(=O)C(CC)CC)C(C)(C)C)C(=O)N[C@@H](CC(C)C)C(=O)O (stereo partly shown) [(C2 H5)2 CHCO-Tbg-Asp(pyrrolidino)-Asp(Bu)-Leu-OH],2000 nM,–
CCC(CC)C(=O)N[C@H](C(=O)N[C@@H](CC(=O)N1CCCC1)C(=O)N[C@H](C(=O)N[C@@H](CC(C)C)C(=O)O)C(CC)(CC)C(=O)O)C(C)(C)C [(C2 H5)2 CHCO-Tbg-Asp(pyrrolidino)-Asp(diEt)-Leu-OH],100 nM,–
"CCC(CC)C(=O)N[C@H](C(=O)N[C@@H](CC(=O)N1CCCC1)C(=O)NC(C(=O)N[C@@H](CC(C)C)C(=O)O)C(C)(C)C(=O)O)C(C)(C)C (stereo partly drawn) [(C2 H5)2 CHCO-Tbg-Asp(pyrrolidino)-Asp(diMe)-Leu-OH] ({Butanoyl(2-Et)}-[Tle]D(Pyrrolidide)[ξAsp(3,3-Me2)]L-OH)",–,"IC50 (separated diastereoisomer, first value listed (footnote 5, order not stated)): 140 nM; IC50 (separated diastereoisomer, second value listed (footnote 5, order not stated)): 9100 nM"
CCC(CC)C(=O)N[C@H](C(=O)N[C@@H](CC(=O)N1CCCC1)C(=O)N[C@@H](CC(=O)O)C(=O)N[C@H](CO)[C@@H](C)CC)C(C)(C)C [(C2 H5)2 CHCO-Tbg-Asp(pyrrolidino)-Asp-(L-isoleucinol)],11000 nM,–
CCC(CC)C(=O)N[C@H](C(=O)N[C@@H](CC(=O)N1CCCC1)C(=O)N[C@@H](CC(=O)O)C(=O)NCCC(C)(C)C)C(C)(C)C [(C2 H5)2 CHCO-Tbg-Asp(pyrrolidino)-Asp-NHCH2 CH2 C(CH)3],18000 nM,–
CCC(CC)C(=O)N[C@H](C(=O)N[C@@H](CC(=O)N1CCCC1)C(=O)N[C@@H](CC(=O)O)C(=S)N[C@@H](CC(C)C)C(=O)O)C(C)(C)C [(C2 H5)2 CHCO-Tbg-Asp(pyrrolidino)-Asp.PSI.[CSNH]Leu-OH],1900 nM,–
CCC(CC)C(=O)N[C@H](C(=O)N[C@@H](CC(=O)N1CCCC1)C(=O)N[C@@H](CC(=O)O)C(=O)N[C@@H](CC(C)C)C(=O)O)[C@@H](C)OCc1ccccc1 [(C2 H5)2 CHCO-Thr(OBz)-Asp(pyrrolidino)-Asp-Leu-OH] ({Butanoyl(2-Et)}-T(Bn)D(Pyrrolidide)DL-OH),3400 nM,–
CCC(CC)C(=O)N[C@H](C(=O)N[C@@H](CC(=O)N1CCCC1)C(=O)N[C@@H](CC(=O)O)C(=O)NCCC(C)(C)C)[C@@H](C)OC [(C2 H5)2 CHCO-Thr(OMe)-Asp(pyrrolidino)-Asp-NHCH2 CH2 C(CH3)3],75000 nM,–
CCC(CC)C(=O)N[C@H](C(=O)N[C@@H](CC(=O)N1CCCC1)C(=O)N[C@@H](CC(=O)O)C(=O)N[C@H](CO)CC1CCCCC1)C(C)(C)C [(C2 H5)CHCO-Tbg-Asp(pyrrolidino)-Asp-NH--CH(cyclohexylmethyl)CH2 OH],10500 nM,–
CCCCCC[C@H](C)OC(=O)C[C@H](NC(=O)[C@@H](NC(=O)CCC(C)C)[C@@H](C)CC)C(=O)N[C@@H](CC(=O)O)C(=O)N[C@@H](CC(C)C)C(=O)O [(CH3)2 CHCH2 CH2 CO-Ile-Asp(1-methylheptyloxy)-Asp-Leu-OH] ({Pentanoyl(4-Me)}-ID(O(2S-octyl))DL-OH),> 10000 nM,–
CC[C@H](C)[C@H](NC(=O)CCC(C)C)C(=O)N[C@@H](CC(=O)N1CCCC1)C(=O)N[C@@H](CC(=O)O)C(=O)N[C@@H](CC(C)C)C(=O)O [(CH3)2 CHCH2 CH2 CO-Ile-Asp(pyrrolidino)-Asp-Leu-OH] ({Pentanoyl(4-Me)}-ID(Pyrrolidide)DL-OH),3000 nM,–
CC[C@H](C)[C@H](NC(=O)CC(C)C)C(=O)N[C@@H](CC(=O)N1CCCC1)C(=O)N[C@@H](CC(=O)O)C(=O)N[C@@H](CC(C)C)C(=O)O [(CH3)2 CHCH2 CO-Ile-Asp(pyrrolidino)-Asp-Leu-OH] (Isovaleryl-ID(Pyrrolidide)DL-OH),2700 nM,–
CC(C)C[C@H](NC(=O)[C@H](CC(=O)O)NC(=O)[C@H](CC(=O)N1CCCC1)NC(=O)[C@@H](NC(=O)[C@@H](O)C(C)C)C(C)(C)C)C(=O)O [[(S)-(CH3)2 CHCH(OH)CO]-Tbg-Asp(pyrrolidino)-Asp-Leu-OH] (H-[Hiv][Tle]D(Pyrrolidide)DL-OH),2800 nM,–
"CC[C@H](C)[C@H](NC(=O)C1C(C)CCC(C)C1C(=O)OCCc1ccccc1)C(=O)N[C@@H](CC(=O)N1CCCC1)C(=O)N[C@@H](CC(=O)O)C(=O)N[C@@H](CC(C)C)C(=O)O (stereo partly drawn) [[(d,1)1α,2α,3β,6β-3,6-Dimethyl-2-(phenylethoxycarbonyl)cyclohexanecarbonyl]-Ile-Asp(pyrrolidino)-Asp-Leu-OH] (X1-ID(Pyrrolidide)DL-OH)",–,IC50 [2]: 500 nM; IC50 [3]: 2300 nM
"CC[C@H](C)[C@H](NC(=O)C1CCCCC1C(=O)CCc1ccccc1)C(=O)N[C@@H](CC(=O)N(CC)CC)C(=O)N[C@@H](CC(=O)O)C(=O)N[C@@H](CC(C)C)C(=O)O (stereo partly drawn) [[(d,1)-2-(3-Phenyl-1-oxopropyl)cyclohexanecarbonyl]-Ile-Asp(NEt2)-Asp-Leu-OH] (X3-ID(NEt2)DL-OH)",–,IC50 [2]: 1400 nM; IC50 [3]: 34000 nM
"CC[C@H](C)[C@H](NC(=O)C(CCCCc1ccccc1)C(C)C)C(=O)N[C@@H](CC(=O)N1CCCC1)C(=O)N[C@@H](CC(=O)O)C(=O)N[C@@H](CC(C)C)C(=O)O (stereo partly drawn) [[d,1-Ph(CH2)4 -CH[CH(CH3)2 ]CO]-Ile-Asp(pyrrolidino)-Asp-Leu-OH] (X5-ID(Pyrrolidide)DL-OH)",1300 nM,–
